Tested on: RAW 264.7 cells
Experiment: NO production (nitrite, Griess reaction) by LPS/IFN-γ activated RAW 264.7 cells
Format: cell-based, mice
Settings: 24 hours
Protocol: The cells of the mice macrophage cell line RAW 264.7 (under accession number CCRC 60001), which was obtained from Cell Culture Research Center, Food Industry Research and Development Institute, Hsinchu, Taiwan, R.O.C., were used for the test.
The RAW 264.7 cells were incubated in a 96 well tissue culture plate (Falcon). After 24 hours, the cells were activated with Dulbecco's Modified Eagle Medium (DMEM, 2014, GibcoBRL) in the presence and absence of 100 ng/ml LPS, 100 U/ml IFN-γ and various concentrations (10 μM, 20 μM, 50 μM, 100 μM and 200 μM) of bismuth subgallate (Hwang et al., 1994, J. Biol. Chem. 269, p. 711-715). After 24 hours, 50 μl of the supernatant from each well was assayed for the presence of nitrite through the Saville modification of the Griess reaction (Green et al., Analytical Biochem, 1982, 126:131-138). The results were represented by the means plus standard errors values (Mean±SE) of three repetitions.
The effect of borneol on the inhibition of NO synthase was tested through the same experimental procedures as described in Example 1. Various concentrations of borneol (0 μM, 40 μM, 80 μM, 160 μM, 320 μM and 640 μM) were used to replace bismuth subgallate of Example 1. The results were represented by the mean values of three repetitions with standard errors (Mean±SE).
The effect of bismuth subgallate in combination with borneol on the inhibition of NO synthase was tested through the similar experimental procedures as described in Example 1. The following concentrations of Bismuth subgallate: 0 μM, 12.5 μM, 25 μM, 50 μM and 100 μM, were combined with the following concentrations of borneol: 0 μM, 10 μM, 20 μM and 40 μM, respectively, to obtain the combinations for the replacement of bismuth subgallate used in Example 1. The results were represented by the mean values of three repetitions with standard errors (Mean±SE).

Compound	NO production (nitrite concentration in supernatant) (borneol 0, 40, 80, 160, 320, 640 μM, LPS + IFN-γ activated cells, FIG. 2)	NO production (nitrite concentration in supernatant) (bismuth subgallate 10, 20, 50, 100, 200 μM, 100 ng/ml LPS + 100 U/ml IFN-γ, FIG. 1)	concentration dependence of NO production (bismuth subgallate 10-200 μM, LPS + IFN-γ activated cells, FIG. 1)
CC1(C)C2CCC1(C)C(O)C2 (stereo not drawn) [borneol]	not significantly inhibited	–	–
bismuth subgallate	–	showed a reduction in nitrite concentration	inversely proportional to the increase in the concentration of bismuth subgallate

— patent US20030040541A1, “Use of bismuth subgallate in inhibition of production of nitric oxide synthase” (Hedonist Biochemical Technologies Co., Ltd., priority 2001, published 2003)
